Data from US9624217B2, “Dihydropyrrolopyridine inhibitors of ROR-gamma” (Vitae Pharmaceuticals, Inc., priority 2014, dated 2017).

Assays:
full-length RORγt = full-length RORγt (Homo sapiens (Human), UniProt P51449); assay: RORγt 5×RORE Assay in Jurkat Cells (Assay 2); type: cell-based; conditions: secreted Nanoluc luciferase 5×RORE reporter, 16-18 hrs, read-out: RORγt5X IC50 Range
Experimental: [formula] RORγt 5×RORE Assay in Jurkat Cells (Assay 2)
Compounds of the present invention were tested for RORγ inverse agonist activity in a cell-based, transcriptional activity assay. […] (Promega, Cat. #N1021) using KpnI and HindIII restriction sites. […] Luciferase activity in the conditioned supernatants was determined with NanoGlo® assay reagents (Promega, Cat. #N1130).

[1] = target: recombinant RORγ Ligand Binding Domain (LBD) (Homo sapiens (Human), UniProt P51449); assay: Radio-Ligand RORγ Binding Assay (Assay 1); conditions: SPA competition with 25-hydroxy [26,27-3H]-cholesterol, cell-free; read-out: RORγ Binding Ki Range
Experimental: Radio-Ligand RORγ Binding Assay (Assay 1)
Compounds of the present invention were tested for ability to bind to RORγ in a cell-free competition assay with commercially available radio-ligand (RL), 25-hydroxy [26,27-^3H]-cholesterol (PerkinElmer, Cat. #NET674250UC), for a ligand binding site on a recombinant RORγ Ligand Binding Domain (LBD) protein expressed as a 6×His-Glutathione-S-Transferase (GST) fusion. […] The plate was shaken at 700 rpm for 20 min and incubated for 10 min at rt, after which 40 μL of poly-Lys YSi SPA beads (PerkinElmer, Cat. #RPNQ0010) were added to achieve 50 μg of the beads per well. The plate was incubated on an orbital shaker for 20 min and then for 10 min without agitation at rt. SPA signal for tritium beta radiation was registered on PerkinElmer Microbeta plate reader. […] The percent inhibition vs. concentration data were fit into a four-parameter model, and IC50 values were calculated from the fit as the concentrations corresponding to the inflection points on the dose-response curves.

full-length RORγt, sequence (P51449 other isoform, or with tags, fused parts or gaps): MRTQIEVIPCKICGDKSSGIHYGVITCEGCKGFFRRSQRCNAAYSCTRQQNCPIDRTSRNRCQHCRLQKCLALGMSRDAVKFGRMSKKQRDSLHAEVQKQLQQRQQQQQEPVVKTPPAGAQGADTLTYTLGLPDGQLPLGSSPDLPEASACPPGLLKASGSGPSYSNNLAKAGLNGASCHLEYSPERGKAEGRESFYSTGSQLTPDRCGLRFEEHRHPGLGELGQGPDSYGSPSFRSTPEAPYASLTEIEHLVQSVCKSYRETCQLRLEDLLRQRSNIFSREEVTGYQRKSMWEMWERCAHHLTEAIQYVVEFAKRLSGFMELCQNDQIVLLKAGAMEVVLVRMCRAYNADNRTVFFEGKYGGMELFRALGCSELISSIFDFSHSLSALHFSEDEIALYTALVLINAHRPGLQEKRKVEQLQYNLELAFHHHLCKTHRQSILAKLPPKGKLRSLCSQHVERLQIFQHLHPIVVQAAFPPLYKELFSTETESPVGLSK
recombinant RORγ Ligand Binding Domain (LBD), sequence (P51449 269-508): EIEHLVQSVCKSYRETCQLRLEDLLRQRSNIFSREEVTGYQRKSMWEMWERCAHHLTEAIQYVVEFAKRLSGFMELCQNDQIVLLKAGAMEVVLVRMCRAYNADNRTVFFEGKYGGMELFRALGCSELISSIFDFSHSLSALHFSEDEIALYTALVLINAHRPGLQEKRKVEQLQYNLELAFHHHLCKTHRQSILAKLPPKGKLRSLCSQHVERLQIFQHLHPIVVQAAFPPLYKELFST

## CCS(=O)(=O)c1ccc(CNC(=O)c2cnc3c(c2)CN(C(=O)OC(C)(C)C)[C@H]3C(C)C)cc1 [Compound 15, tert-butyl (S)-3-((4-(ethylsulfonyl)benzyl)carbamoyl)-7-isopropyl-5,7-dihydro-6H-pyrrolo[3,4-b]pyridine-6-carboxylate]
full-length RORγt
  IC50: > 1000 nM

## CCS(=O)(=O)c1ccc(CNC(=O)c2cnc3c(c2)CN(CC2CCC(F)(F)CC2)[C@H]3C(C)C)cc1 [Compound 42]
[1]
  Ki: < 100 nM
full-length RORγt
  IC50: > 1000 nM

## CCS(=O)(=O)c1ccc(CNC(=O)c2cnc3c(c2)C(=O)N(Cc2ccc(Cl)cc2)C3(O)C(C)C)cc1 (centres unmarked) [Compound 11]
[1]
  Ki: 100 to 1000 nM
full-length RORγt
  IC50: > 1000 nM

## CCS(=O)(=O)c1ccc(CC(=O)Nc2cnc3c(c2)CN(Cc2ccc(C(F)(F)F)cc2)[C@H]3C(C)C)cc1 [Compound 58]
[1]
  Ki: < 100 nM
full-length RORγt
  IC50: < 100 nM

## CCS(=O)(=O)c1ccc(CNC(=O)c2cnc3c(c2)CN(C(=O)OCc2ccc(Cl)cc2)[C@H]3C(C)C)cc1 [Compound 25]
[1]
  Ki: < 100 nM
full-length RORγt
  IC50: > 1000 nM

## CCS(=O)(=O)c1ccc(CNC(=O)c2cnc3c(c2)CN(Cc2ccc(F)cc2)[C@H]3C(C)C)cc1 [Compound 7]
[1]
  Ki: < 100 nM
full-length RORγt
  IC50: 100 to 1000 nM

## CCS(=O)(=O)c1cnc(CNC(=O)c2cnc3c(c2)CN(Cc2ccc(C(F)(F)F)cc2)[C@H]3C(C)C)c(C)c1 [Compound 142]
[1]
  Ki: < 100 nM
full-length RORγt
  IC50: < 100 nM

## CC(C)[C@H]1c2ncc(C(=O)NCc3ccc(S(C)(=O)=O)cc3)cc2CN1Cc1ccc(Cl)cc1 [Compound 17]
[1]
  Ki: < 100 nM
full-length RORγt
  IC50: < 100 nM

## CCS(=O)(=O)c1ccc(CNC(=O)c2cnc3c(c2)CN(Cc2ccc(Cl)cc2)[C@H]3C(C)C)cc1 [Compound 3]
[1]
  Ki: < 100 nM
full-length RORγt
  IC50: < 100 nM

## CC(C)[C@H]1c2ncc(C(=O)NCc3ccc(S(C)(=O)=O)cc3)cc2CN1Cc1ccc(C(F)(F)F)cc1 [Compound 22]
[1]
  Ki: < 100 nM
full-length RORγt
  IC50: < 100 nM

## CCS(=O)(=O)c1ccc(CNC(=O)c2cnc3c(c2)[C@H](C)N(Cc2ccc(Cl)cc2)[C@H]3C(C)C)cc1 [Compound 29]
[1]
  Ki: < 100 nM
full-length RORγt
  IC50: < 100 nM

## CC(C)[C@H]1c2ncc(C(=O)NCc3ccc(C#N)cn3)cc2CN1Cc1ccc(C(F)(F)F)cc1 [Compound 155]
[1]
  Ki: 100 to 1000 nM
full-length RORγt
  IC50: > 1000 nM

## CC(C)[C@H]1c2ncc(C(=O)N[C@@H](CO)c3ccc(C#N)cc3)cc2CN1Cc1ccc(C(F)(F)F)cc1 [Compound 149]
[1]
  Ki: < 100 nM
full-length RORγt
  IC50: 100 to 1000 nM

## CC(C)[C@H]1c2ncc(C(=O)NCc3ccc(S(C)(=O)=O)cc3)cc2CN1Cc1ccc(C#N)cc1 [Compound 21]
[1]
  Ki: 100 to 1000 nM
full-length RORγt
  IC50: 100 to 1000 nM

## CCS(=O)(=O)c1ccc(CNC(=O)c2cnc3c(c2)CN(CC2CCC(F)(F)CC2)[C@H]3C(C)C)nc1 [Compound 43]
[1]
  Ki: < 100 nM
full-length RORγt
  IC50: > 1000 nM

## CC(C)[C@H]1c2ncc(C(=O)NC[C@H]3CC[C@H](CC(=O)O)CC3)cc2CN1Cc1ccc(C(F)(F)F)cc1 [Compound 139]
[1]
  Ki: < 100 nM
full-length RORγt
  IC50: 100 to 1000 nM

## CCS(=O)(=O)c1ccc(CNC(=O)c2cnc3c(c2)CN(Cc2ccc4c(c2)OC(F)(F)O4)[C@H]3C(C)C)nc1 [Compound 54]
[1]
  Ki: < 100 nM
full-length RORγt
  IC50: < 100 nM

## CCS(=O)(=O)c1ccc(CNC(=O)c2cnc3c(c2)CN(Cc2ccc(OC(F)F)cc2)[C@H]3C(C)C)cc1 [Compound 5]
[1]
  Ki: < 100 nM
full-length RORγt
  IC50: < 100 nM

## CCS(=O)(=O)c1ccc(CC(=O)Nc2cnc3c(c2)CN(Cc2ccc(C#N)cc2)[C@H]3C(C)C)cc1 [Compound 57]
[1]
  Ki: < 100 nM
full-length RORγt
  IC50: < 100 nM

## CCS(=O)(=O)c1ccc(CNC(=O)c2cnc3c(c2)CN(Cc2ccc(C(F)(F)F)cc2)[C@H]3C(C)C)nc1 [Compound 33]
[1]
  Ki: < 100 nM
full-length RORγt
  IC50: < 100 nM

## CCOC(=O)c1cnc(N2Cc3cc(C(=O)NCc4ccc(S(=O)(=O)CC)cc4)cnc3[C@@H]2C(C)C)nc1C(F)(F)F [Compound 10]
[1]
  Ki: < 100 nM
full-length RORγt
  IC50: > 1000 nM

## CC(C)[C@H]1c2ncc(C(=O)NCc3ccc(C#N)cc3)cc2CN1Cc1ccc(C(F)(F)F)cc1 [Compound 64]
[1]
  Ki: < 100 nM
full-length RORγt
  IC50: 100 to 1000 nM

## CCS(=O)(=O)c1ccc(CNC(=O)c2cnc3c(c2)CN(Cc2ccc(Cl)cc2)[C@H]3C(C)C)nc1 [Compound 34]
[1]
  Ki: < 100 nM
full-length RORγt
  IC50: < 100 nM

## CNS(=O)(=O)c1ccc(CNC(=O)c2cnc3c(c2)CN(Cc2ccc(C(F)(F)F)cc2)[C@H]3C(C)C)cc1 [Compound 67]
[1]
  Ki: < 100 nM
full-length RORγt
  IC50: < 100 nM

## CCS(=O)(=O)c1ccc(CNC(=O)c2cnc3c(c2)CN(C(=O)OC(C)(C)C)[C@H]3C(C)C)nc1 [Compound 46, Tert-butyl (S)-3-(((5-(ethylsulfonyl)pyridin-2-yl)methyl)carbamoyl)-7-isopropyl-5,7-dihydro-6H-pyrrolo[3,4-b]pyridine-6-carboxylate]
[1]
  Ki: < 100 nM
full-length RORγt
  IC50: > 1000 nM

## CCS(=O)(=O)c1ccc(CC(=O)Nc2cnc3c(c2)CN(C[C@H]2CC[C@H](C(F)(F)F)CC2)[C@H]3C(C)C)cc1 [Compound 55]
[1]
  Ki: < 100 nM
full-length RORγt
  IC50: < 100 nM

## CCS(=O)(=O)c1ccc(CNC(=O)c2cnc3c(c2)CN(c2ncc(C(F)(F)F)cn2)[C@H]3C(C)C)cc1 [Compound 8]
[1]
  Ki: < 100 nM
full-length RORγt
  IC50: > 1000 nM

## CCS(=O)(=O)c1ccc(CC(=O)Nc2cnc3c(c2)CN(Cc2ccc(Cl)cc2)[C@H]3C(C)C)cc1 [Compound 56]
full-length RORγt
  IC50: 100 to 1000 nM

## CC(C)[C@H]1c2ncc(C(=O)NCC3CCN(S(C)(=O)=O)CC3)cc2CN1Cc1ccc(C(F)(F)F)cc1 [Compound 63]
[1]
  Ki: < 100 nM
full-length RORγt
  IC50: 100 to 1000 nM

## CCS(=O)(=O)c1cnc(CNC(=O)c2cnc3c(c2)CN(Cc2ccc(C(F)(F)F)cc2)[C@H]3C(C)C)c(F)c1 [Compound 144]
[1]
  Ki: < 100 nM
full-length RORγt
  IC50: < 100 nM

## COC(=O)c1ccc(CNC(=O)c2cnc3c(c2)CN(Cc2ccc(C(F)(F)F)cc2)[C@H]3C(C)C)cc1 [Compound 65, Methyl (S)-4-((7-isopropyl-6-(4-(trifluoromethyl)benzyl)-6,7-dihydro-5H-pyrrolo[3,4-b]pyridine-3-carboxamido)methyl)benzoate]
[1]
  Ki: 100 to 1000 nM

## CCS(=O)(=O)c1ccc(CNC(=O)c2cnc3c(c2)C(=O)N(C[C@H]2CC[C@H](C(F)(F)F)CC2)[C@H]3C(C)C)nc1 [Compound 47]
[1]
  Ki: < 100 nM

## CC(C)[C@H]1c2ncc(C(=O)NCC3(O)CCC4(CC3)OCCO4)cc2CN1Cc1ccc(C(F)(F)F)cc1 [Compound 118]
[1]
  Ki: > 1000 nM

## COC(=O)C1(CNC(=O)c2cnc3c(c2)CN(Cc2ccc(C(F)(F)F)cc2)[C@H]3C(C)C)CCOCC1 [Compound 134]
[1]
  Ki: > 1000 nM

## CC(C)[C@H]1c2ncc(C(=O)NCc3ccccc3OCCN(C)C)cc2CN1Cc1ccc(C(F)(F)F)cc1 [Compound 98]
[1]
  Ki: > 1000 nM

## CC(C)[C@H]1c2ncc(C(=O)NCc3ccn(C)n3)cc2CN1Cc1ccc(C(F)(F)F)cc1 [Compound 82]
[1]
  Ki: > 1000 nM

## CC(C)[C@H]1c2ncc(C(=O)NCCN3CCN(C)CC3)cc2CN1Cc1ccc(C(F)(F)F)cc1 [Compound 99]
[1]
  Ki: > 1000 nM

## CC(C)[C@H]1c2ncc(C(=O)N[C@H]3c4ccccc4C[C@H]3O)cc2CN1Cc1ccc(C(F)(F)F)cc1 [Compound 125]
[1]
  Ki: > 1000 nM

## CC(C)[C@H]1c2ncc(C(=O)NC(CO)c3ccc(Br)cc3)cc2CN1Cc1ccc(C(F)(F)F)cc1 (some centres unmarked) [Compound 123]
[1]
  Ki: 100 to 1000 nM

## CC(C)[C@H]1c2ncc(C(=O)NCc3cccc(S(C)(=O)=O)c3)cc2CN1Cc1ccc(C(F)(F)F)cc1 [Compound 116]
[1]
  Ki: 100 to 1000 nM

## CC(C)[C@H]1c2ncc(C(=O)NCC3(c4ccc(Cl)cc4)CC3)cc2CN1Cc1ccc(C(F)(F)F)cc1 [Compound 80]
[1]
  Ki: > 1000 nM

## CC(C)[C@H]1c2ncc(C(=O)N[C@H](C)c3ccc(Br)cc3)cc2CN1Cc1ccc(C(F)(F)F)cc1 [Compound 119]
[1]
  Ki: > 1000 nM

## CC(C)[C@H]1c2ncc(C(=O)NCCC3CCOCC3)cc2CN1Cc1ccc(C(F)(F)F)cc1 [Compound 90]
[1]
  Ki: 100 to 1000 nM

## CCS(=O)(=O)CCNC(=O)c1cnc2c(c1)CN(Cc1ccc(C(F)(F)F)cc1)[C@H]2C(C)C [Compound 86]
[1]
  Ki: > 1000 nM

## CC(C)[C@H]1c2ncc(C(=O)NCc3ccc(S(C)(=O)=O)cc3)cc2CN1Cc1ccc(C(F)(F)F)cn1 [Compound 36]
[1]
  Ki: 100 to 1000 nM

## CC(C)[C@H]1c2ncc(C(=O)NCC(O)c3ccc(C(F)(F)F)cc3)cc2CN1Cc1ccc(C(F)(F)F)cc1 (some centres unmarked) [Compound 70]
[1]
  Ki: > 1000 nM

## COC(=O)[C@H]1CC[C@H](CNC(=O)c2cnc3c(c2)CN(Cc2ccc(C(F)(F)F)cc2)[C@H]3C(C)C)CC1 [Compound 75]
[1]
  Ki: > 1000 nM

## CC(C)[C@@H]1c2ncc(C(=O)NCc3ccc(S(C)(=O)=O)cc3)cc2CN1Cc1ccc(C#N)cc1 [Compound 19]
[1]
  Ki: > 1000 nM

## CC(C)[C@H]1c2ncc(C(=O)NCC(F)F)cc2CN1Cc1ccc(C(F)(F)F)cc1 [Compound 124]
[1]
  Ki: > 1000 nM

## CC(C)[C@H]1c2ncc(C(=O)NCC3CN(C(=O)OC(C)(C)C)C3)cc2CN1Cc1ccc(C(F)(F)F)cc1 [Compound 68]
[1]
  Ki: > 1000 nM

## CC(C)[C@H]1c2ncc(C(=O)NCc3ccc(S(C)(=O)=O)cc3)cc2CN1Cc1ccc(Cl)cn1 [Compound 23]
[1]
  Ki: 100 to 1000 nM

## CC(C)[C@H]1c2ncc(C(=O)NC[C@H]3CC[C@H](C(=O)O)CC3)cc2CN1Cc1ccc(C(F)(F)F)cc1 [Compound 148]
[1]
  Ki: > 1000 nM
